The text below walks through data of patent publication US5763469A, “Substituted cyclic ureas and derivatives thereof useful as retroviral protease inhibitors” (The DuPont Merck Pharmaceutical Company, priority 1996, dated 1998).

≈ marks a conversion by molar mass, not a printed value.

The subject of this test is HIV-1 (RF). Briefly: HIV RNA assay: microplate based compound evaluation in HIV-1 infected MT-2 cells. Format: cell-based. The following applies: Human immunodeficiency virus 1, MT2, 72 h; HIV-1 (RF) infected MT-2 cells, 3 days of culture; virus dilutions were selected to give this value (standardisation of inoculum); read-out: IC90 value (concentration of compound required to reduce the HIV RNA level by 90%). The method, then: MT-2, CEM, and H9 cells were maintained in RPMI 1640 supplemented with 5% fetal calf serum (FCS), 2 mM L-glutamine and 50 μg/mL gentamycin, all from Gibco. Laboratory strains of HIV-1 (RF, MN and IIIB) were propagated in H9 cells in the same medium. Virus stocks were prepared approximately 1 month after acute infection of H9 cells by clarification of the tissue culture medium and storage of aliquots at -70° C. Infectious titers of HIV-1 (RF) stocks were 1-3×10^7 PFU (plaque forming units)/mL as measured by plaque assay on MT-2 cells (see below). Each aliquot of virus stock used for infection was thawed only once. […]
Cell lysates or purified RNA in 3M or 5M GED were mixed with 5M GED and capture probe to a final guanidinium isothiocyanate concentration of 3M and a final biotin oligonucleotide concentration of 30 nM. […] Immobilized alkaline phosphatase activity was detected by addition of 100 μL of 0.2 mM 4-methylumbelliferyl phosphate (MUBP, JBL Scientific) in buffer δ(2.5M diethanolamine pH 8.9 (JBL Scientific), 10 mM MgCl2, 5 mM zinc acetate dihydrate and 5 mM N-hydroxyethyl-ethylene-diamine-triacetic acid). […] Fluorescence at […] was measured using a microplate fluorometer (Dynateck) exciting at 365 nm.
Compounds to be evaluated were dissolved in DMSO and diluted in culture medium to twice the highest concentration to be tested and a maximum DMSO concentration of 2%. […]

`Nc1ccn([C@H]2CC[C@@H](CO)O2)c(=O)n1` [ddC, dideoxycytidine]: the IC90 was 0.2 µg/mL (≈ 0.947 µM).
